This note sets out measurements from patent US20250367129A1, “Lipid Compounds and Uses Thereof” (Pfizer Inc., priority 2022, published 2025).

Each structure is given as a SMILES string.

Data set [1] can be described thus: LNP size and polydispersity index by Malvern Zetasizer dynamic light scattering (CA HA modFlu mRNA LNPs). In kind it is physicochemical. The following applies: DLS; for Size (nm): LNP of the ionizable lipid:cholesterol:DSPC:ALC-0159 about 46.3:42.7:9.4:1.6, N:P about 6:1, CA HA modFlu mRNA; for PDI: LNP with CA HA modFlu mRNA. The procedure:
(§1) Lipid nanoparticles were prepared and tested according to the general procedures described in U.S. Pat. No. 9,737,619 (PCT Pub. No. WO2015/199952) and U.S. Pat. No. 10,166,298 (PCT Pub. No. WO 2017/075531) and PCT Pub. No. WO2020/146805. The novel ionizable lipids of the invention, cholesterol, distearoylphosphatidylcholine (DSPC) and ALC-0159 2-[(polyethylene glycol)-2000]-N,N ditetradecylacetamide were solubilized in ethanol at a molar ratio of about 46.3:42.7:9.4:1.6. Lipid nanoparticles were made by mixing the lipids containing organic phase with the mRNA containing aqueous phase using an N:P ratio of about 6:1. The mRNA was diluted in buffer. Syringe pumps were used to mix the ethanolic lipid solution with the mRNA aqueous solution. The ethanol was then removed, and the external buffer replaced with another buffer (e.g., Tris) by dialysis. Finally, the lipid nanoparticles were filtered.
(§2) Total RNA concentration and encapsulation efficiency was assessed using the RiboGreen RNA quantitation assay. RNA integrity pre and post formulation was monitored by Agilent Fragment Analyzer capillary gel electrophoresis. Malvern Zetasizer dynamic light scattering (DLS) was used to determine LNP size and polydispersity index (PDI). In vitro expression of the novel ionizable lipid nanoparticles was assessed in HEK293F and Hela cells similar to described in Example 72. Nuclear count and identification of cells stained positive for gene of interest was done on an Opera Phenix high content imager (PerkinElmer, USA).

A short description of data set [2]: Encapsulation efficiency, RiboGreen RNA quantitation assay (CA HA modFlu mRNA LNPs). The following applies: LNP with CA HA modFlu mRNA. The data set is classed as physicochemical. The procedure: as §1, §2
The next data set has as its system HEK293F cells. Description: In vitro expression of novel ionizable lipid nanoparticles, high content imaging (CA HA modFlu mRNA). In kind it is cell-based. The following applies: LNP with CA HA modFlu mRNA. The procedure:
(§3) Plated Hek293T or Hela cells were dosed with lipid nanoparticles in a total volume of 40 μl cell culture media and incubated overnight at 37° C. and 5% CO2. After fixation with 4% paraformaldehyde in PBS cells were washed in PBS containing 0.3% Triton-X100 and 3% BSA (w/v), followed by nuclear staining with Hoechst and antibody staining for the encoded gene of interest. Nuclear count and identification of cells stained positive for gene of interest was done on an Opera Phenix high content imager (PerkinElmer, USA).
as §1, §2

The next data set relates to Hela cells. The data set is described as above. In kind it is cell-based. The following applies: LNP with CA HA modFlu mRNA. The procedure: as §3, §1, §2

For `CCCCCCCCC(CCCCCC)C(=O)OCCCC(COC(=O)C(CCCCCC)CCCCCCCC)N1CCC2(CCN(CCCCO)CC2)CC1` (centres unmarked) [Example 19, 2-(9-(4-hydroxybutyl)-3,9-diazaspiro[5.5]undecan-3-yl)pentane-1,5-diyl bis(2-hexyldecanoate)], in data set [1], the “Size (nm)” value turned out to be 153 nm and the PDI is given as 0.140. Further, the EE % in data set [2] worked out at 99%. In the data set with HEK293F cells, the “EC50 Hek293F (ng/well)” value stood at 1.4 ng/well. The “EC50 Hela (ng/well)” value with Hela cells was 0.89 ng/well.

As to `CCCCCCCC(CCCCCCC)C(=O)OCC(COC(=O)C(CCCCCCC)CCCCCCC)N1CCC2(CC1)CN(CCCCO)C2` [Example 20, 2-(2-(4-hydroxybutyl)-2,7-diazaspiro[3.5]nonan-7-yl)propane-1,3-diyl bis(2-heptylnonanoate)], in data set [1], the “Size (nm)” value came out at 105 nm and the PDI worked out at 0.073. The molecule also came in with an EE % in data set [2] of 98%. The “EC50 Hek293F (ng/well)” value with HEK293F cells turned out to be 0.22 ng/well. For the same molecule, the “EC50 Hela (ng/well)” value in the data set on Hela cells turned out to be 0.28 ng/well.

For the molecule `CCCCCCCCC(CCCCCC)C(=O)OCC(COC(=O)C(CCCCCC)CCCCCCCC)N1CCC2(CCN(C(C)CCCO)CC2)CC1` (centres unmarked) [Example 21, 2-(9-(5-hydroxypentan-2-yl)-3,9-diazaspiro[5.5]undecan-3-yl)propane-1,3-diyl bis(2-hexyldecanoate)], in data set [1], the “Size (nm)” value turned out to be 159 nm and the PDI is recorded as 0.064. The EE % in data set [2] was determined as 99%. Further, the “EC50 Hek293F (ng/well)” value with HEK293F cells was determined as 0.28 ng/well. In the data set on Hela cells, the “EC50 Hela (ng/well)” value is listed as 0.41 ng/well.

`CCCCCCCC(CCCCCCC)C(=O)OCC(COC(=O)C(CCCCCCC)CCCCCCC)N1CCC2(CCN(CCCCO)C2)CC1` [Example 22, 2-(2-(4-hydroxybutyl)-2,8-diazaspiro[4.5]decan-8-yl)propane-1,3-diyl bis(2-heptylnonanoate)]: in data set [1], the “Size (nm)” value is 107 nm and the PDI was found to be 0.065. This molecule gave an EE % in data set [2] of 99%. For the same molecule, the “EC50 Hek293F (ng/well)” value in the data set with HEK293F cells is 0.14 ng/well. Besides, the “EC50 Hela (ng/well)” value with Hela cells was found to be 0.39 ng/well.

`CCCCCCCCC(CCCCCC)C(=O)OCC(COC(=O)C(CCCCCC)CCCCCCCC)N1CCC2(CCN(CCCCO)CC2)CC1` (centres unmarked) [Example 23, 2-(9-(4-hydroxybutyl)-3,9-diazaspiro[5.5]undecan-3-yl)propane-1,3-diyl bis(2-hexyldecanoate)]: in data set [1], the “Size (nm)” value is on record as 144 nm and the PDI is listed as 0.090. In data set [2], this molecule gave an EE % of 100%. Also, the “EC50 Hek293F (ng/well)” value in the data set on HEK293F cells was 0.47 ng/well. The “EC50 Hela (ng/well)” value in the data set with Hela cells amounted to 1.2 ng/well.

`CCCCCCCCC(CCCCCCCC)C(=O)OCC(COC(=O)C(CCCCCCCC)CCCCCCCC)N1CCC2(CCN(CCCCO)CC2)CC1` [Example 24, 2-(9-(4-hydroxybutyl)-3,9-diazaspiro[5.5]undecan-3-yl)propane-1,3-diyl bis(2-octyldecanoate)]: in data set [1], the “Size (nm)” value is 82 nm and the PDI was determined as 0.072. This molecule came in with an EE % in data set [2] of 99%. Further, in the data set on HEK293F cells, the “EC50 Hek293F (ng/well)” value was 0.48 ng/well. Besides, the “EC50 Hela (ng/well)” value in the data set on Hela cells stood at 0.72 ng/well.

Regarding `CCCCCCCC(CCCCCCC)C(=O)OCC(COC(=O)C(CCCCCCC)CCCCCCC)N1CCC2(CCN(CCCCCO)CC2)CC1` [Example 25, 2-(9-(5-hydroxypentyl)-3,9-diazaspiro[5.5]undecan-3-yl)propane-1,3-diyl bis(2-heptylnonanoate)], in data set [1], the “Size (nm)” value was determined as 137 nm and the PDI was 0.040. In data set [2], this molecule showed an EE % of 99%. The “EC50 Hek293F (ng/well)” value with HEK293F cells is 0.42 ng/well. For the same molecule, the “EC50 Hela (ng/well)” value in the data set with Hela cells was 0.61 ng/well.

As to `CCCCCCCCC(CCCCCCC)C(=O)OCC(COC(=O)C(CCCCCCC)CCCCCCCC)N1CCC2(CCN(CCCCO)CC2)CC1` (centres unmarked) [Example 26, 2-(9-(4-hydroxybutyl)-3,9-diazaspiro[5.5]undecan-3-yl)propane-1,3-diyl bis(2-heptyldecanoate)], in data set [1], the “Size (nm)” value stood at 96 nm and the PDI stood at 0.030. Besides, the EE % in data set [2] was 100%. Moreover, in the data set with HEK293F cells, the “EC50 Hek293F (ng/well)” value turned out to be 1.6 ng/well. Besides, the “EC50 Hela (ng/well)” value in the data set on Hela cells was 1.8 ng/well.

On to `CCCCCCCCC(CCCC)C(=O)OCC(COC(=O)C(CCCC)CCCCCCCC)N1CCC2(CCN(CCCCO)CC2)CC1` (centres unmarked) [Example 27, 2-(9-(4-hydroxybutyl)-3,9-diazaspiro[5.5]undecan-3-yl)propane-1,3-diyl bis(2-butyldecanoate)], for which, in data set [1], the “Size (nm)” value was 74 nm and the PDI came out at 0.095. Moreover, in data set [2], the EE % came out at 97%. The “EC50 Hek293F (ng/well)” value with HEK293F cells is 35.9 ng/well. Also, the “EC50 Hela (ng/well)” value with Hela cells is reported as 12.5 ng/well.

For `CCCCCCCCC(CCCCCC)CC(=O)OCC(COC(=O)CC(CCCCCC)CCCCCCCC)N1CCC2(CCN(CCCCO)CC2)CC1` (centres unmarked) [Example 28, 2-(9-(4-hydroxybutyl)-3,9-diazaspiro[5.5]undecan-3-yl)propane-1,3-diyl bis(3-hexylundecanoate)], in data set [1], the “Size (nm)” value is recorded as 96 nm and the PDI is given as 0.025. In data set [2], this molecule registered an EE % of 99%. Further, the “EC50 Hek293F (ng/well)” value in the data set with HEK293F cells came out at 9.9 ng/well. Also, in the data set with Hela cells, the “EC50 Hela (ng/well)” value is reported as 6.4 ng/well.

As to `CCCCCCCCC(CCCCC)C(=O)OCC(COC(=O)C(CCCCC)CCCCCCCC)N1CCC2(CCN(CCCCO)CC2)CC1` (centres unmarked) [Example 29, 2-(9-(4-hydroxybutyl)-3,9-diazaspiro[5.5]undecan-3-yl)propane-1,3-diyl bis(2-pentyldecanoate)], in data set [1], the “Size (nm)” value was found to be 130 nm and the PDI worked out at 0.050. For the same molecule, in data set [2], the EE % worked out at 100%. For the same molecule, the “EC50 Hek293F (ng/well)” value with HEK293F cells is reported as 0.82 ng/well. Moreover, in the data set with Hela cells, the “EC50 Hela (ng/well)” value was 1.0 ng/well.

Regarding `CCCCCCCCC(CC1CCC1)C(=O)OCC(COC(=O)C(CCCCCCCC)CC1CCC1)N1CCC2(CCN(CCCCO)CC2)CC1` (centres unmarked) [Example 30, 2-(9-(4-hydroxybutyl)-3,9-diazaspiro[5.5]undecan-3-yl)propane-1,3-diyl bis(2-(cyclobutylmethyl)decanoate)], in data set [1], the “Size (nm)” value stood at 102 nm and the PDI came to 0.030. Besides, the EE % in data set [2] is on record as 99%. For the same molecule, the “EC50 Hek293F (ng/well)” value in the data set with HEK293F cells is listed as 12.6 ng/well. For the same molecule, the “EC50 Hela (ng/well)” value in the data set on Hela cells came out at 3.3 ng/well.

As to `CCCCCCCCCCCCC(CCCCCCC)C(=O)OCC(COC(=O)C(CCCCCCC)CCCCCCCCCCCC)N1CCC2(CCN(CCCCO)CC2)CC1` (centres unmarked) [Example 31, 2-(9-(4-hydroxybutyl)-3,9-diazaspiro[5.5]undecan-3-yl)propane-1,3-diyl bis(2-heptyltetradecanoate)], in data set [1], the “Size (nm)” value stood at 121 nm and the PDI stood at 0.150. In data set [2], the EE % is listed as 99%. Besides, the “EC50 Hek293F (ng/well)” value with HEK293F cells was found to be 1.7 ng/well. Further, the “EC50 Hela (ng/well)” value in the data set with Hela cells is reported as 2.9 ng/well.

Regarding `CCCCCCCCC(CC1CCCC1)C(=O)OCC(COC(=O)C(CCCCCCCC)CC1CCCC1)N1CCC2(CCN(CCCCO)CC2)CC1` (centres unmarked) [Example 32, 2-(9-(4-hydroxybutyl)-3,9-diazaspiro[5.5]undecan-3-yl)propane-1,3-diyl bis(2-(cyclopentylmethyl)decanoate)], in data set [1], the “Size (nm)” value was determined as 132 nm and the PDI worked out at 0.060. For the same molecule, the EE % in data set [2] turned out to be 100%. Besides, in the data set with HEK293F cells, the “EC50 Hek293F (ng/well)” value was determined as 0.96 ng/well. For the same molecule, the “EC50 Hela (ng/well)” value in the data set with Hela cells was determined as 0.91 ng/well.

As to `CCCCCCCCC(CCCCCC)C(=O)OCC(COC(=O)C(CCCCCC)CCCCCCCC)N1CCC2(CCN(CCCCO)C2)C1` (centres unmarked) [Example 33, 2-(7-(4-hydroxybutyl)-2,7-diazaspiro[4.4]nonan-2-yl)propane-1,3-diyl bis(2-hexyldecanoate)], in data set [1], the “Size (nm)” value is reported as 115 nm and the PDI is recorded as 0.090. Besides, the EE % in data set [2] amounted to 99%. Besides, the “EC50 Hek293F (ng/well)” value in the data set on HEK293F cells was 0.22 ng/well. For the same molecule, in the data set on Hela cells, the “EC50 Hela (ng/well)” value turned out to be 0.29 ng/well.

Consider `CCCCCCCCC(CCCCCC)C(=O)OCC(COC(=O)C(CCCCCC)CCCCCCCC)N1CC2(CCN(CCCCO)CC2)C1` (centres unmarked) [Example 34, 2-(7-(4-hydroxybutyl)-2,7-diazaspiro [3.5]nonan-2-yl)propane-1,3-diyl bis(2-hexyldecanoate)], for which, in data set [1], the “Size (nm)” value is listed as 130 nm and the PDI worked out at 0.040. Moreover, in data set [2], the EE % came out at 99%. Moreover, in the data set with HEK293F cells, the “EC50 Hek293F (ng/well)” value came out at 2.1 ng/well. For the same molecule, the “EC50 Hela (ng/well)” value in the data set with Hela cells worked out at 3.8 ng/well.
